Results: patent publication US20180057505A1, “BICYCLIC HETEROARYL COMPOUNDS USEFUL AS INHIBITORS OF THE PAR-2 SIGNALING PATHWAY” (VERTEX PHARMACEUTICALS INCORPORATED, priority 2015, published 2018)

Experiments:
Format in all cases: cell-based
PAR2 (HT-29 cells) [1] = target: T1, PAR2 (HT-29 cells) (Homo sapiens, UniProt P55085); assay: Ca FLIPR TETRA assay, ANTAGONIST mode, activator 8 μM SLIGKV; settings: HT-29 cells, activator 8 μM SLIGKV
T1 construct: host or cells: HT-29
T1 sequence (P55085 26-397): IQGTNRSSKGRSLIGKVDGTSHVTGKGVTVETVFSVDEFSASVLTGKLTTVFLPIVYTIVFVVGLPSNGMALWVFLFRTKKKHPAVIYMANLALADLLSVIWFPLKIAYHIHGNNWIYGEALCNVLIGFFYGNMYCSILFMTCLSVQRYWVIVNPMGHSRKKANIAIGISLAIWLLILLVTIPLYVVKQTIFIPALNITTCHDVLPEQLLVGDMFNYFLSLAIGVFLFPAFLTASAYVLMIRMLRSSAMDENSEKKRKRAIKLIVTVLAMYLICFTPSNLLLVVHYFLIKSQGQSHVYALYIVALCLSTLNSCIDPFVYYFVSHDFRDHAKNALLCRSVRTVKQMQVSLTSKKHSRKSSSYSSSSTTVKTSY
Outline: (§1)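 Antagonist-mode FLIPR Tetra Ca2+ read: dye-loaded HT-29 cells preincubated 30 min at r.t. with compound (first read checks agonism alone), then challenged with final 3.1 U/mL trypsin, 8 μM SLIGKV, 1 U/mL thrombin or 0.6 μM UTP. Cells plated overnight in 1% FBS McCoy's; Calcium 5 loading 45 min 37 °C plus 15 min r.t.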

PAR2 (HT-29 cells) [2] = target: T1, PAR2 (HT-29 cells); assay: Ca FLIPR TETRA assay, ANTAGONIST mode, activator 3.1 U/mL trypsin; settings: HT-29 cells, activator 3.1 U/mL trypsin
Outline: as §1

[3] = test system: Thrombin-stimulated Ca2+ response in HT-29 cells; assay: Ca FLIPR TETRA assay, ANTAGONIST mode, activator 1 U/mL Thrombin; settings: HT-29 cells, activator 1 U/mL Thrombin
Outline: as §1

[4] = test system: UTP-stimulated Ca2+ response in HT-29 cells; assay: Ca FLIPR TETRA assay, ANTAGONIST mode, activator 0.6 μM UTP; settings: HT-29 cells, activator 0.6 μM UTP
Outline: as §1

[5] = maximal antagonist concentration per Method (A: 0.1, 1 or 2 μM; B: 50 μM)
[6] = Method A: maximal concentration of antagonist 0.1, 1 or 2 μM

| SMILES | IC50 (PAR2 (HT-29 cells) [1]; [5]) | IC50 (PAR2 (HT-29 cells) [2]; [5]) | IC50 ([3]; Homo sapiens) | IC50 ([4]; Homo sapiens) | IC50 (PAR2 (HT-29 cells) [1]; [6]) | IC50 (PAR2 (HT-29 cells) [2]; [6]) | IC50 [3] | IC50 [4] |
| --- | --- | --- | --- | --- | --- | --- | --- | --- |
| CC(C)(C)c1cc(-c2ccc(F)cc2)nc2cc(C(=O)N3CCN(C(=O)c4nnc[nH]4)CC3(C)C)oc12 [Example I-154] | 4.7 nM | 3.6 nM | > 1000 nM | > 1000 nM |  |  |  |  |
| Cc1cc(C(=O)N2CCN(C(=O)c3cc4nc(C5CCC(C)(C)CC5)cc(C(C)(C)C)c4o3)C(C)(C)C2)[nH]n1 [Example I-523] |  |  | > 2000 nM | > 2000 nM | 2 nM | 1.9 nM |  |  |
| CC(C)(C)c1cc(-c2ccc(Cl)c(F)c2)nc2cc(C(=O)N3CCN(C(=O)C4CCC(C(=O)O)O4)CC3(C)C)oc12 (stereo not drawn) [Example I-255] | 11 nM | 13 nM | > 2000 nM | > 2000 nM |  |  |  |  |
| Cc1cc(C(=O)N2CCN(C(=O)c3cc4nc(-c5ccc(F)cc5)cc(C(C)C)c4o3)C(C)(C)C2)on1 [Example I-138] | 2 nM | 2.2 nM | > 1000 nM | > 1000 nM |  |  |  |  |
| CC(C)(C)c1cc(-c2ccc(F)cc2)nc2cc(C(=O)N3CCN(N4CCC(=O)NCC4(C)C)CC3(C)C)oc12 [Example I-453] |  |  | > 2000 nM | > 2000 nM | 450 nM | 660 nM |  |  |
| CC(C)(C)c1cc(-c2ccc(Cl)c(F)c2)nc2cc(C(=O)N3CCc4cnc(CC(=O)O)nc4C3(C)C)oc12 [Example I-363] |  |  | > 2000 nM | > 2000 nM | 0.6 nM | 0.9 nM |  |  |
| CC(C)(C)c1cc(-c2ccc(Cl)c(F)c2)nc2cc(C(=O)N3CCN(C(=O)CC4(C(=O)O)CCCCC4)CC3(C)C)oc12 [Example I-547] |  |  | > 2000 nM | > 2000 nM | 0.09 nM | 0.1 nM |  |  |
| CC1(C(=O)N2CCN(C(=O)c3cc4nc(-c5ccc(F)cc5)cc(C5(C)CC5)c4o3)C(C)(C)C2)CC1 [Example I-45] | 4 nM | 4.1 nM | 20000 nM | 4700 nM |  |  |  |  |
| CC(C)(C)c1cc(-c2ccc(Cl)c(F)c2)nc2cc(C(=O)N3CCN(c4ccn[nH]4)C(=O)C3(C)C)oc12 [Example I-406] |  |  | > 2000 nM | > 2000 nM | 10 nM | 8.8 nM |  |  |
| Cc1cncnc1N1CCN(C(=O)c2cc3nc(-c4ccc(Cl)cc4)cc(C(C)(C)C)c3o2)C(C)(C)C1 [Example I-265] | 5.8 nM | 5.5 nM | > 2000 nM | > 2000 nM |  |  |  |  |
| CC(C)(C)c1cc(-c2ccc(Cl)c(F)c2)nc2cc(C(=O)N3CCC(=O)NCC3(C)C)oc12 [Example I-335] |  |  | > 2000 nM | > 2000 nM | 91 nM | 28.5 nM |  |  |
| CC1(C)CCC(c2cc(-c3ccc(F)cc3)nc3cc(C(=O)N4CCNC(=O)C4(C)C)oc23)CC1 [Example I-251] | > 2000 nM | > 2000 nM |  |  |  |  | > 2000 nM | > 2000 nM |
| CC(C)(C)c1cc(-c2ccc(F)cc2)nc2cc(C(=O)N3CCN(C(=O)c4ccn[nH]4)CC3(C)C)oc12 [Example I-152] | 8.1 nM | 7.7 nM | > 1000 nM | > 1000 nM |  |  |  |  |
| Cc1cc(N2CCN(C(=O)c3cc4nc(-c5ccc(Cl)cc5)cc(C(C)(C)C)c4o3)C(C)(C)C2)ncn1 [Example I-390] |  |  | > 2000 nM | > 2000 nM | 19 nM | 12.5 nM |  |  |
| CNS(=O)(=O)CC(=O)N1CCN(C(=O)c2cc3nc(C4CCC(F)(F)CC4)cc(C(C)(C)C)c3o2)C(C)(C)C1=O [Example I-219] | 39 nM | 50 nM |  |  |  |  | > 2000 nM | > 2000 nM |
| CC(C)(C)c1cc(-c2ccc(Cl)c(F)c2)nc2cc(C(=O)N3CCN(C(=O)c4ccc(C(=O)O)nc4)CC3(C)C)oc12 [Example I-252] | 120 nM | 140 nM | > 2000 nM | > 2000 nM |  |  |  |  |
| CC1(c2cc(-c3ccc(F)cc3)nc3cc(C(=O)N4CCN(C(=O)C(C)(O)C(F)(F)F)CC4(C)C)oc23)CC1 (stereo not drawn) [Example I-39] | 14 nM | 20 nM | 21000 nM | 23000 nM |  |  |  |  |
| CC(C)(O)C(=O)N1CCN(C(=O)c2cc3nc(-c4ccc(F)cc4)cc(C4(C)CC4)c3o2)C(C)(C)C1 [Example I-27] | 19 nM | 33 nM | 6000 nM | 7400 nM |  |  |  |  |
